“Also recorded” adds a separate entry of the source.
Experiments:
[1] = biological target: T1, G2A.GFP fusion receptor (Mus musculus, UniProt Q9Z282); assay: Internalisation of G2A.GFP in HEK 293 G2A.GFP cells (confocal microscopy); format: cell-based; details: 2 hours, serum starved HEK 293 G2A.GFP cells
T1 construct: expressed in transfected cells; host or cells: HEK 293 cells infected with amphotropic MSCV G2A.GFP retrovirus
T1 sequence (Q9Z282 1-382): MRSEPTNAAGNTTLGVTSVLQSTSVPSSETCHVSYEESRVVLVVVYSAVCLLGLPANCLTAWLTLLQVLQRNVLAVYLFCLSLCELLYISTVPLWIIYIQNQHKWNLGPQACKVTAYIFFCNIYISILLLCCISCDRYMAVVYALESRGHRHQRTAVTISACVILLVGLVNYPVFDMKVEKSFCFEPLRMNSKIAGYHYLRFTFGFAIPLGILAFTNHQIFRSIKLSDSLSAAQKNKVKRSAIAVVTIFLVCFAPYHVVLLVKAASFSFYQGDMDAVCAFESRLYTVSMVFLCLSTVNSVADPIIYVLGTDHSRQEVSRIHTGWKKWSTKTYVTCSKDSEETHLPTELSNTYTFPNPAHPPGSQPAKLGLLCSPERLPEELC
Description: Agonist dependent receptor internalisation is a feature of GPCRs. G2A.GFP expressing HEK 293 cells (HEK 293 G2A.GFP) were generated by infection with amphotropic MSCV G2A.GFP retroviruses. In serum starved HEK 293 G2A.GFP cells, G2A.GFP is expressed predominantly on the plasma membrane. LPC (0.1 μM), as well as SPC (1 μM), induced internalisation of G2A.GFP in over 90% of cells (FIG. 6). Neither LPA, S-1-P or PAF induced G2A internalisation, which is consistent with LPC acting as a specific ligand for G2A. Treatment of HEK 293 G2A.GFP cells with SPC at low concentrations (0.1 μM) induced receptor internalisation in fewer cells (<50%).
HEK 293 G2A.GFP cells were seeded onto glass coverslips and subsequently serum starved for 16-24 hours prior to treatment with lipids. Two hours following lipid treatment, coverslips were washed with cold PBS and fixed with PBS/4% paraformaldehyde. Subcellular localisation of G2A.GFP was visualised under a confocal fluorescence microscope with a 60× oil immersion lens.

[2] = tested on: CHO GFP cells; assay: ERK MAP kinase assay in control CHO GFP cells; format: cell-based, Chinese hamster; details: serum starved CHO GFP cells, LPC 0.01 μM to 10 μM, 10 minutes
Description: (§1) Further exploration of the cellular response to LPC was undertaken in Chinese hamster ovary (CHO) cells. Stable lines of G2A expressing CHO cells were derived by infection with retroviruses encoding G2A.GFP (MSCV G2A.GFP). We examined ERK MAP kinase activity in control CHO GFP and CHO G2A.GFP cells in response to varying doses of LPC (0.01 μM to 10 μM).
(§2) CHO GFP or CHO G2A.GFP cells were serum starved for 18 hours prior to treatment with LPC for 10 minutes at 37° C. Western blotting was performed to detect activated p44/42 ERK MAP kinase using a specific phospho-ERK antibody (Santa Cruz Biotechnology,).

[3] = biological target: T2, G2A (Mus musculus, UniProt Q9Z282); assay: Calcium assay ([Ca2+]i, Fura-2) in G2A.GFP transfected MCF 10A cells; format: cell-based
T2 construct: expressed in transfected cells; host or cells: MCF 10A (human breast epithelial cells, no endogenous G2A), plasmid pEXV3 G2A.GFP
T2 sequence (Q9Z282 1-382): T1 sequence (Q9Z282 1-382)
Description: (§3) MCF 10A cells were cultured in specialised glass-bottom dishes (Bioptech, Inc., Butler, Pa.) and loaded with Fura-2/AM ([…]; Molecular Probes) at 37° C. for 30 minutes in HEPES buffered saline (pH 7.4) containing 125 mM NaCl, 5 mM KCl, 1.2 mM MgSO4, 11 mM glucose, 1.8 mM CaCl2, 25 mM HEPES, 0.2% BSA. Loaded cells were washed, placed in HEPES buffeted saline without BSA, and incubated for 30 minutes at ambient temperature ensure dye hydrolysis by cytosolic esterases. Using a dual-wavelength spectrofluorometer (RFK-6002, Photon Technology Int'l, So. Brunswick, N.J.) coupled to an inverted fluorescence microscope (Olympus, IX-70, Lake Success, N.Y.), GFP-positive cells were identified using an excitation wavelength of 488 nm, a dichroic 505 nm long-pass and an emitter bandpass of 535 nm (Chroma Technology, Brattleboro, Vt.). [Ca^2+], measurements were performed on individual GFP-positive cells at excitation wavelengths of 340 nm and 380 nm, and an emission wavelength of 510 nm. Prior to data acquisition, background fluorescence (areas without cells) was measured and automatically subtracted from subsequent measurements. Agonists were diluted in HEPES buffered saline and solution changes accomplished by rapidly aspirating the buffer and replacing it with HEPES buffered saline containing the specific agonist. Fura-2 fluorescence signals (340 nm, 380 nm and the 340/380 ratio) originating from individual GFP-positive cells were continuously monitored at a sampling frequency of 25 Hz and collected using a software package from Photon Technology International (Felix™). Conversion of the 340 nm/380 nm ratio value into [Ca^2+]i was estimated by comparing the cellular fluorescence ratio with ratios acquired using Fura-2 (free acid) in buffers containing known Ca^2+ concentrations. [Ca^2+]i was then calculated as described by Grynkiewicz, et al (Grynkiewicz, G, et al, J Biol Chem, 260: pp3440-3450, 1985). All assays were performed in assay buffers containing 1 mM EGTA to exclude measurement of calcium influx.
(§4) To address whether G2A is a lysophospholipid receptor, we examined signalling events in cells ectopically expressing G2A as functional correlates of receptor activation. […] [Ca^2+]i measurements were performed in MCF 10A cells transfected with plasmids encoding green fluorescent protein (GFP) tagged G2A (pEXV3 G2A.GFP) (Kabarowski, J H S, et al, PNAS, 97: pp12109-12114, 2000) or GFP as described (Yan Xu and Derek S. Damron, Methods in Molecular Medicine, 39: Ovarian Cancer: Methods and Protocols, pp611-619, 2000). […] Similarly, dose-dependent responses of G2A.GFP transfected cells to SPC were observed, with an EC50 of approximately 0.4 μM (FIG. 4B). […] Responses to these agonists were not affected by G2A.GFP expression (FIG. 4A, middle and lower panels).

[4] = tested on: MCF 10A cells; assay: Calcium assay ([Ca2+]i, Fura-2) in parental or pEXV3 GFP transfected MCF 10A cells (control); format: cell-based, human; details: SPC or LPC up to 10 μM, LPA 1 μM, PAF 0.1 μM, ATP 20 μM
Description: as §3, §4

[5] = biological target: T2, G2A; assay: ERK MAP kinase assay (phospho-ERK Western blot) in CHO G2A.GFP cells; format: cell-based; details: serum starved CHO G2A.GFP cells, LPC 0.01 μM to 10 μM, 10 minutes
Description: as §1, §2

Substance: lysophosphatidylcholine [LPC]
- induction of G2A internalisation [1]: internalisation of G2A.GFP induced by LPC
- ERK MAP kinase activity in control cells [2]: did not respond
- EC50 ([3]; G2A.GFP transfected MCF 10A cells, 1 mM EGTA in buffer, read-out: EC50 of dose-dependent increase in [Ca2+]i): ~100 nM
- transient increase in [Ca2+]i ([3]; G2A.GFP transfected MCF 10A cells, LPC 0.1 μM, SPC 0.1 μM, LPA 1 μM, PAF 0.1 μM, ATP 20 μM): induced a transient increase; also recorded: induce transient [Ca^2+], increases
- desensitisation to subsequent stimulation with LPC or SPC (1 μM) ([3]; pretreatment 5 minutes with LPC 1 μM or SPC 10 μM (b23 prints SPC 1.0 μM), G2A.GFP-transfected MCF 10A cells): induced homologous and heterologous desensitisation
- [Ca2+]i response in control cells [4]: Neither parental or pEXV3 GFP transfected cells responded
- ERK MAP kinase activity [5]: dose-dependent increases; also recorded: activates ERK MAP kinase
